Each block holds one compound with its values, some of them ahead of it.
Tests used:
[1] = target: baculovirus-expressed JAK2 kinase (Homo sapiens, UniProt O60674); experiment: biochemical; details: 0.2 μM ATP; read-out: JAK2 Potency
Procedure, shortened: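 IC50 derived by variable-slope sigmoidal fit of percent inhibition against log compound concentration. Baculovirus-expressed JAK2 (15 ng/mL) phosphorylated a plate-bound biotinylated 15-mer peptide for 20 min at room temperature; detection by time-resolved fluorescence.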

[2] = target: baculovirus-expressed ALK (Homo sapiens, UniProt Q9UM73); experiment: ALK kinase inhibition, TRF/ELISA; format: biochemical; details: read-out: ALK Potency
Procedure, shortened: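 Eu-PT66 anti-phosphotyrosine TRF read-out measured phosphorylation of plate-bound GST-PLC-γ (coated at 10 μg/mL). The phosphorylation was driven by 30 ng/mL ALK for 15 minutes at 37° C.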

Chain of baculovirus-expressed JAK2 kinase (O60674 whole entry): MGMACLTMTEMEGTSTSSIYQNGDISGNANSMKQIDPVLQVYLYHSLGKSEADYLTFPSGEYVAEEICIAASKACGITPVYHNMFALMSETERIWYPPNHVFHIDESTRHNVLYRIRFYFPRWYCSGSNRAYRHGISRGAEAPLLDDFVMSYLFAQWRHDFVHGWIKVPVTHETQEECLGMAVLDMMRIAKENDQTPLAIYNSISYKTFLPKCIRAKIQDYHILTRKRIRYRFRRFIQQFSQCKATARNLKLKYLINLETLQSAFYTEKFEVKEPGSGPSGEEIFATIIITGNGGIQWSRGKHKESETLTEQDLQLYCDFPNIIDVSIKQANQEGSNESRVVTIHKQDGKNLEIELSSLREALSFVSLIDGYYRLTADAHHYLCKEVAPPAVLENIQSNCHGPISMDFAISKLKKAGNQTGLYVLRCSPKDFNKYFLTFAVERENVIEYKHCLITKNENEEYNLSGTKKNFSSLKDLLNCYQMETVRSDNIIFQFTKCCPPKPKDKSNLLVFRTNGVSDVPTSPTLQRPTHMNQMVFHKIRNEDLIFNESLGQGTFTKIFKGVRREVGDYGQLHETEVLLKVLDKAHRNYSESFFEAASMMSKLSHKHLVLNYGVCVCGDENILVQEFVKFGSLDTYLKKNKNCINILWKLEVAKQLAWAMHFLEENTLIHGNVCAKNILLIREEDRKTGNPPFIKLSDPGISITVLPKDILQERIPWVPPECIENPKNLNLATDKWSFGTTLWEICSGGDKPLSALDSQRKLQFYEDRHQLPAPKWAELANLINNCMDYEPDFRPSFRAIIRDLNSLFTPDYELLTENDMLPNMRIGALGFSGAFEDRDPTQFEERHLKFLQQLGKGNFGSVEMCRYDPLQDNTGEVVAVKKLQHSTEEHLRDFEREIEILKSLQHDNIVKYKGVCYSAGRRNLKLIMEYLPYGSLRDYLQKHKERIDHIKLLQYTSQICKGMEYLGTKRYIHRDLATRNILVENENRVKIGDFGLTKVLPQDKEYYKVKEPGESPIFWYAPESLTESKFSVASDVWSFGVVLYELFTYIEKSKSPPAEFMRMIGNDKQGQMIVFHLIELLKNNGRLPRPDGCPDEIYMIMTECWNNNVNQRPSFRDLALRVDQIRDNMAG
Chain of baculovirus-expressed ALK (Q9UM73 19-1620): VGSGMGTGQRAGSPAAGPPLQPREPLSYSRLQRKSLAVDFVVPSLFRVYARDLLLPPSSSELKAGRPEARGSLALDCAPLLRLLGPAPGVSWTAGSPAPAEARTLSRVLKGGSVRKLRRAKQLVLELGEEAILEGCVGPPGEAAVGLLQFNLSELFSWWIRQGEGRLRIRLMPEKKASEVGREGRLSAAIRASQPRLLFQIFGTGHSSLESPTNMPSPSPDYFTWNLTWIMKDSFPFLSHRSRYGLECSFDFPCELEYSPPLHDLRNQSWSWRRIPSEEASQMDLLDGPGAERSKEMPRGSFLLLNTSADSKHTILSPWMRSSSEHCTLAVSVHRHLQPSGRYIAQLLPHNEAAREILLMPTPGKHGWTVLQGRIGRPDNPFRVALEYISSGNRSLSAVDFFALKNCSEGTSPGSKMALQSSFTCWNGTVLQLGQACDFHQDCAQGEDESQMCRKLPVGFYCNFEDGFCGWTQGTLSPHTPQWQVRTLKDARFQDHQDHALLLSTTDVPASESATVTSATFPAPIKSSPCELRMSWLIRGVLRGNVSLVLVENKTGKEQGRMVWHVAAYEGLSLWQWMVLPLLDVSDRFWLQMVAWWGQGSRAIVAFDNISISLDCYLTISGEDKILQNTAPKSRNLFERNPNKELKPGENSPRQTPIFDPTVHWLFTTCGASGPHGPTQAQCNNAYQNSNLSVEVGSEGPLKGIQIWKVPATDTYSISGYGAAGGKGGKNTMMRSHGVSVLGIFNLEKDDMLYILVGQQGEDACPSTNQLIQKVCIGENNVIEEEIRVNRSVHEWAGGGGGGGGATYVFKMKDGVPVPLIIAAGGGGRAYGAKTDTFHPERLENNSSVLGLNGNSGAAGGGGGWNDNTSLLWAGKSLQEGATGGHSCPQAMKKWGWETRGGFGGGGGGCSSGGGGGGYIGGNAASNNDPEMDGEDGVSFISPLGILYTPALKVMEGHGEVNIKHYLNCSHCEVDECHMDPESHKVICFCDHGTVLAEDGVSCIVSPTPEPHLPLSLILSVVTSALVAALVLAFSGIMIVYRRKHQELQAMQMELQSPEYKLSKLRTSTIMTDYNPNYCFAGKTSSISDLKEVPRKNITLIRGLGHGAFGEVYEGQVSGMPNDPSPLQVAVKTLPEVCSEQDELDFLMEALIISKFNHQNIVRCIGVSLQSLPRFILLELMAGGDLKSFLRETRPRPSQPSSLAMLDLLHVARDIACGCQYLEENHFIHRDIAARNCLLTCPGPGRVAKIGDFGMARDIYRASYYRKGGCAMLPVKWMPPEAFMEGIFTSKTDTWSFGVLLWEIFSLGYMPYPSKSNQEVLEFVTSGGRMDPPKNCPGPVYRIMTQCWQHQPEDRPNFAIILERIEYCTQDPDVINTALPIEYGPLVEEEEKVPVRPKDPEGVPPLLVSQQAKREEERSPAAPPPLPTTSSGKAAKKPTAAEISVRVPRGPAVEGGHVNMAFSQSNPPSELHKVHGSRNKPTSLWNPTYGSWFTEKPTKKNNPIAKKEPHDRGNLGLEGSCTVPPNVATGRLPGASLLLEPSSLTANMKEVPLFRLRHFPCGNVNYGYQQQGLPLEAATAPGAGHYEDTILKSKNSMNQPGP

Compound: COc1cc(C2CCN(C[C@@H](C)O)CC2)ccc1-c1nc2c(N[C@H]3[C@@H](C(N)=O)[C@@H]4C=C[C@H]3C4)c(Cl)cnc2[nH]1 [Compound CXVI]
IC50 [1]: < 0.1 µM
IC50 [2]: < 0.1 µM
melting point: > 120 °C

Compound: CC(C)(C)OC(=O)N1CCCC(c2nc3c(N[C@H]4[C@@H](C(N)=O)[C@@H]5C=C[C@H]4C5)c(Br)cnc3[nH]2)C1 (stereo partly drawn) [Compound LXXXII, 3-[6-Bromo-7-((1R,2R,3S,4S)-3-carbamoyl-bicyclo[2.2.1]hept-5-en-2-ylamino)-3H-imidazo[4,5-b]pyridin-2-yl]-piperidine-1-carboxylic acid tert-butyl]
IC50 [1]: 0.1 to 1 µM
IC50 [2]: 0.1 to 1 µM
melting point: 172 to 177 °C

Compound: COc1cc(N2CCC(N3CCN(C)CC3)CC2)ccc1-c1nc2c(N[C@H]3[C@@H](C(N)=O)[C@@H]4C=C[C@H]3C4)ccnc2[nH]1 [Compound XCIX, (1S,2S,3R,4R)-3-(2-{2-Methoxy-4-[4-(4-methyl-piperazin-1-yl)-piperidin-1-yl]-phenyl}-3H-imidazo[4,5-b]pyridin-7-ylamino)-bicyclo[2.2.1]hept-5-ene-2-carboxylic acid amide]
IC50 [1]: > 10 µM
IC50 [2]: 0.1 to 1 µM
melting point: 185 to 195 °C

Compound: CN1CCN(c2ccc(-c3nc4c(N[C@H]5[C@@H](C(N)=O)[C@@H]6C=C[C@H]5C6)ccnc4[nH]3)cc2)CC1 [Compound LXXXVIII, (1S,2S,3R,4R)-3-{2-[4-(4-Methyl-piperazin-1-yl)-phenyl]-3H-imidazo[4,5-b]pyridin-7-ylamino}-bicyclo[2.2.1]hept-5-ene-2-carboxylic acid amide]
IC50 [1]: 1 to 10 µM
IC50 [2]: 1 to 10 µM
melting point: 220 to 222 °C

Compound: COc1cc(N(C)C)ccc1-c1nc2c(N[C@H]3[C@@H](C(N)=O)[C@@H]4C=C[C@H]3C4)ccnc2[nH]1 [Compound XCIII, (1S,2S,3R,4R)-3-[2-(4-Dimethylamino-2-methoxy-phenyl)-3H-imidazo[4,5-b]pyridin-7-ylamino]-bicyclo[2.2.1]hept-5-ene-2-carboxylic acid amide]
IC50 [1]: > 10 µM
IC50 [2]: > 10 µM
melting point: 185 to 190 °C

Compound: CN(C)c1ccc(-c2nc3c(N[C@H]4[C@@H](C(N)=O)[C@@H]5C=C[C@H]4C5)ccnc3[nH]2)cc1 [Compound LXXXVI, (1S,2S,3R,4R)-3-[2-(4-Dimethylamino-phenyl)-3H-imidazo[4,5-b]pyridin-7-ylamino]-bicyclo[2.2.1]hept-5-ene-2-carboxylic acid amide]
IC50 [1]: 1 to 10 µM
IC50 [2]: > 10 µM
melting point: 245 to 251 °C

Compound: COc1ccc(-c2nc3c(N[C@H]4[C@@H](C(N)=O)[C@@H]5C=C[C@H]4C5)c(Cl)cnc3[nH]2)c(C2CCN(C[C@@H](C)O)CC2)c1 [Compound XXXI]
IC50 [1]: 0.1 to 1 µM
IC50 [2]: 1 to 10 µM
melting point: 186 to 187 °C

Compound: COc1cc(N2CCN(C)CC2)ccc1-c1nc2c(N[C@H]3[C@@H](C(N)=O)[C@@H]4C=C[C@H]3C4)c(Br)cnc2[nH]1 [Compound XCVI, (1S,2S,3R,4R)-3-{6-Bromo-2-[2-methoxy-4-(4-methyl-piperazin-1-yl)-phenyl]-3H-imidazo[4,5-b]pyridin-7-ylamino}-bicyclo[2.2.1]hept-5-ene-2-carboxylic acid amide]
IC50 [1]: < 0.1 µM
IC50 [2]: < 0.1 µM
melting point: 185 to 195 °C

Compound: COc1cc(CN2CCN(C[C@H](C)O)CC2)ccc1-c1nc2c(N[C@H]3[C@@H](C(N)=O)[C@@H]4C=C[C@H]3C4)c(Cl)cnc2[nH]1 [Compound XLIII, (1S,2S,3R,4R)-3-(6-Chloro-2-{4-[4-((S)-2-hydroxypropyl)-piperazin-1-ylmethyl]-2-methoxyphenyl}-3H-imidazo[4,5-b]pyridine-7-ylamino)-bicyclo[2.2.1]hept-5-ene-2-carboxylic acid amide]
IC50 [1]: < 0.1 µM
IC50 [2]: < 0.1 µM
melting point: 142 to 146 °C

Compound: COc1cc(N2CCC(N3CCN(C)CC3)CC2)ccc1-c1nc2c(N[C@H]3[C@@H](C(N)=O)[C@@H]4C=C[C@H]3C4)c(Br)cnc2[nH]1 [Compound XCVIII, (1S,2S,3R,4R)-3-(6-Bromo-2-{2-methoxy-4-[4-(4-methyl-piperazin-1-yl)-piperidin-1-yl]-phenyl}-3H-imidazo[4,5-b]pyridin-7-ylamino)-bicyclo[2.2.1]hept-5-ene-2-carboxylic acid amide]
IC50 [1]: < 0.1 µM
IC50 [2]: < 0.1 µM
melting point: 185 to 195 °C

Compound: COc1cc(CN2CC[C@H](O)C2)ccc1-c1nc2c(N[C@H]3[C@@H](C(N)=O)[C@@H]4C=C[C@H]3C4)c(Cl)cnc2[nH]1 [Compound LV, (1S,2S,3R,4R)-3-{6-Chloro-2-[4-((S)-3-hydroxy-pyrrolidin-1-ylmethyl)-2-methoxyphenyl]-3H-imidazo[4,5-b]pyridine-7-ylamino}-bicyclo[2.2.1]hept-5-ene-2-carboxylic acid amide]
IC50 [1]: < 0.1 µM
IC50 [2]: < 0.1 µM
melting point: 205 to 208 °C

Compound: COc1cc(N2CCN(C)CC2)ccc1-c1nc2c(N[C@H]3[C@@H](C(N)=O)[C@@H]4C=C[C@H]3C4)ccnc2[nH]1 [Compound XCV, (1S,2S,3R,4R)-3-{2-[2-Methoxy-4-(4-methyl-piperazin-1-yl)-phenyl]-3H-imidazo[4,5-b]pyridin-7-ylamino}-bicyclo[2.2.1]hept-5-ene-2-carboxylic acid amide]
IC50 [1]: 1 to 10 µM
IC50 [2]: 1 to 10 µM
melting point: 185 to 195 °C

Compound: COc1cc(C2CCN(C[C@@H](O)CO)CC2)ccc1-c1nc2c(N[C@H]3[C@@H](C(N)=O)[C@@H]4C=C[C@H]3C4)c(Cl)cnc2[nH]1 [Compound CXVIII, (1S,2S,3R,4R)-3-(6-Chloro-2-{4-[1-((R)-2,3-dihydroxy-propyl)-piperidin-4-yl]-2-methoxy-phenyl}-3H-imidazo[4,5-b]pyridin-7-ylamino)-bicyclo[2.2.1]hept-5-ene-2-carboxylic acid amide]
IC50 [1]: < 0.1 µM
IC50 [2]: < 0.1 µM
melting point: 209 to 211 °C

Compound: NC(=O)[C@@H]1[C@H](Nc2ccnc3[nH]c(-c4cccc(CN5CCOCC5)c4)nc23)[C@H]2C=C[C@@H]1C2 [Compound XCI, (1S,2S,3R,4R)-3-[2-(3-Morpholin-4-ylmethyl-phenyl)-3H-imidazo[4,5-b]pyridin-7-ylamino]-bicyclo[2.2.1]hept-5-ene-2-carboxylic acid amide]
IC50 [1]: 1 to 10 µM
IC50 [2]: > 10 µM
melting point: 240 to 244 °C

Compound: COc1cc(C2CCN(C)CC2)ccc1-c1nc2c(N[C@H]3[C@@H](C(N)=O)[C@@H]4C=C[C@H]3C4)c(Cl)cnc2[nH]1 [Compound CXVII, (1S,2S,3R,4R)-3-{6-Chloro-2-[2-methoxy-4-(1-methyl-piperidin-4-yl)-phenyl]-3H-imidazo[4,5-b]pyridin-7-ylamino}-bicyclo[2.2.1]hept-5-ene-2-carboxylic acid amide]
IC50 [1]: < 0.1 µM
IC50 [2]: < 0.1 µM
melting point: 232 to 235 °C

Results, then the compound that gave them:

IC50 [1]: < 0.1 µM
IC50 [2]: < 0.1 µM
melting point: 208 to 209 °C
Compound: CN1CCN(Cc2ccc(-c3nc4c(N[C@H]5[C@@H](C(N)=O)[C@@H]6C=C[C@H]5C6)c(Br)cnc4[nH]3)cc2)CC1 [Compound C]

IC50 [1]: 1 to 10 µM
IC50 [2]: 1 to 10 µM
melting point: 150 °C
Compound: NC(=O)[C@@H]1[C@H](Nc2c(Br)cnc3[nH]c(-c4cccnc4N4CCOCC4)nc23)[C@H]2C=C[C@@H]1C2 [Compound CII, (1S,2S,3R,4R)-3-[6-Bromo-2-(2-morpholin-4-yl-pyridin-3-yl)-3H-imidazo[4,5-b]pyridin-7-ylamino]-bicyclo[2.2.1]hept-5-ene-2-carboxylic acid amide]

IC50 [1]: < 0.1 µM
IC50 [2]: < 0.1 µM
melting point: 184 to 185 °C
Compound: NC(=O)[C@@H]1[C@H](Nc2c(Br)cnc3[nH]c(-c4cccc(CN5CCOCC5)c4)nc23)[C@H]2C=C[C@@H]1C2 [Compound LXXXI, (1S,2S,3R,4R)-3-[6-Bromo-2-(3-morpholin-4-ylmethyl-phenyl)-3H-imidazo[4,5-b]pyridin-7-ylamino]-bicyclo[2.2.1]hept-5-ene-2-carboxylic acid amide]

IC50 [1]: < 0.1 µM
IC50 [2]: < 0.1 µM
melting point: 264 to 265 °C
Compound: CN(C)c1ccc(-c2nc3c(N[C@H]4[C@@H](C(N)=O)[C@@H]5C=C[C@H]4C5)c(Br)cnc3[nH]2)cc1 [Compound LXXVI, (1S,2S,3R,4R)-3-[6-Bromo-2-(4-dimethylamino-phenyl)-3H-imidazo[4,5-b]pyridin-7-ylamino]-bicyclo[2.2.1]hept-5-ene-2-carboxylic acid amide]

IC50 [1]: 1 to 10 µM
IC50 [2]: 1 to 10 µM
melting point: 194 to 197 °C
Compound: COc1cccc(OC)c1-c1nc2c(N[C@H]3[C@@H](C(N)=O)[C@@H]4C=C[C@H]3C4)c(Br)cnc2[nH]1 [Compound CVI, (1S,2S,3R,4R)-3-[6-Bromo-2-(2,6-dimethoxy-phenyl)-3H-imidazo[4,5-b]pyridin-7-ylamino]-bicyclo[2.2.1]hept-5-ene-2-carboxylic acid amide]

IC50 [1]: < 0.1 µM
IC50 [2]: 0.1 to 1 µM
melting point: > 300 °C
Compound: NC(=O)[C@@H]1[C@H](Nc2c(Br)cnc3[nH]c(-c4cncnc4)nc23)[C@H]2C=C[C@@H]1C2 [Compound CVII, (1S,2S,3R,4R)-3-(6-Bromo-2-pyrimidin-5-yl-3H-imidazo[4,5-b]pyridin-7-ylamino)-bicyclo[2.2.1]hept-5-ene-2-carboxylic acid amide]

IC50 [1]: < 0.1 µM
IC50 [2]: 0.1 to 1 µM
melting point: 255 to 258 °C
Compound: Cn1cc(-c2nc3c(N[C@H]4[C@@H](C(N)=O)[C@@H]5C=C[C@H]4C5)c(Br)cnc3[nH]2)cn1 [Compound LXXXV, (1S,2S,3R,4R)-3-[6-Bromo-2-(1-methyl-1H-pyrazol-4-yl)-3H-imidazo[4,5-b]pyridin-7-ylamino]-bicyclo[2.2.1]hept-5-ene-2-carboxylic acid amide]

Source: patent US9238656B2, “Imidazo[4,5-b]pyridine derivatives as ALK and JAK modulators for the treatment of proliferative disorders” (priority 2012, dated 2016)
